Columns and labels:
rat thoracic aorta = details: reported by Delpy and Gouville (1996); cited from earlier work
[1] = tested on: neuromuscular transmission; assay: Contractions of gastrocnemius muscle induced by stimulation of the sciatic nerve; assay type: in vivo; details: rat gastrocnemius
Method: FIG. 30. Records of contractions induced by stimulation of the sciatic nerve of equilibrated rat gastrocnemius muscles and of arterial pressure. In control, contractions were induced by intravenous injection of DMSO ([…]). LASSBio-294 was administered in DMSO. Calibration: Horizontal, 1 cm=24 s; Vertical 2 g=100 mm Hg.
FIG. 31. Records of contractions of rat gastrocnemius muscles induced by stimulation of the sciatic nerve and of arterial pressure. For control, contraction was induced by intravenous injection of […] (0.04 ml). LASSBio-294 was administered in DMSO.

## CCCOc1ccc(NS(C)(=O)=O)cc1-c1nc2c(c(C)nn2C)c(=O)[nH]1 [DMPPO]
Rat thoracic aorta
  relaxant effect after removal of endothelium: lost its effect

## C=CC[N@@+]12CC[C@@]34c5ccccc5N5/C=C6/[C@H]7C[C@H]8[C@@]9(CC[N@@+]8(CC=C)C/C7=C/CO)c7ccccc7N(/C=C(/[C@@H](C[C@@H]31)/C(=C\CO)C2)[C@H]54)[C@@H]69.[Cl-].[Cl-] [alloferine, reference compound]
[1]
  depression of muscle contraction (test of functionality of the model): depression of muscle contraction

— US7091238B1, “Thienylhydrazon with digitalis-like properties (positive inotropic effects)” (University of Maryland, priority 1999, dated 2006)
